Measurements reported in patent US6559101B2, “N- (5, 7-dimethoxy [1, 2, 4] triazolo [1, 5-a] pyrimidin-2-yl) arylsulfonamide compounds and their use as herbicides” (Dow AgroSciences LLC, priority 2000, dated 2003).

How the values were obtained:
wild oats (Avena fatua) [1] = assay: Preemergence herbicidal activity; type: in vivo; conditions: 17.5 g/Ha; scored after 3 weeks; 0 no injury, 100 complete kill or no germination
How it was run: (§1)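 Application was to bare soil of seeded pots at rates no higher than 4.48 kg/ha. Three weeks on, plant condition was compared visually with untreated pots and expressed as percent injury.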

[2] = tested on: Rox orange sorghum (Sorghum bicolor); assay: Preemergence herbicidal activity; type: in vivo; conditions: 17.5 g/Ha; scored after 3 weeks; 0 no injury, 100 complete kill or no germination
How it was run: as §1

[3] = tested on: pigweed (Amaranthus retroflexus); assay: Preemergence herbicidal activity; type: in vivo; conditions: 17.5 g/Ha; scored after 3 weeks; 0 no injury, 100 complete kill or no germination
How it was run: as §1

[4] = tested on: wild poinsettia (Euphorbia heterophylla); assay: Preemergence herbicidal activity; type: in vivo; conditions: 17.5 g/Ha; scored after 3 weeks; 0 no injury, 100 complete kill or no germination
How it was run: as §1

[5] = tested on: lambsquarters (Chenopodium album); assay: Preemergence herbicidal activity; type: in vivo; conditions: 17.5 g/Ha; scored after 3 weeks; 0 no injury, 100 complete kill or no germination
How it was run: as §1

[6] = tested on: morningglory (Ipomoea hederacea); assay: Preemergence herbicidal activity; type: in vivo; conditions: 17.5 g/Ha; scored after 3 weeks; 0 no injury, 100 complete kill or no germination
How it was run: as §1

[7] = tested on: giant foxtail (Setaria faberi); assay: Preemergence herbicidal activity; type: in vivo; conditions: 17.5 g/Ha; scored after 3 weeks; 0 no injury, 100 complete kill or no germination
How it was run: as §1

[8] = tested on: crabgrass (Digitaria sanguinalis); assay: Preemergence herbicidal activity; type: in vivo; conditions: 17.5 g/Ha; scored after 3 weeks; 0 no injury, 100 complete kill or no germination
How it was run: as §1

[9] = tested on: blackgrass (Alopecurus myosuroides); assay: Preemergence herbicidal activity; type: in vivo; conditions: 17.5 g/Ha; scored after 3 weeks; 0 no injury, 100 complete kill or no germination
How it was run: as §1

[10] = tested on: barnyardgrass (Echinochloa crus-galli); assay: Preemergence herbicidal activity; type: in vivo; conditions: 17.5 g/Ha; scored after 3 weeks; 0 no injury, 100 complete kill or no germination
How it was run: as §1

[11] = tested on: cocklebur (Xanthium strumarium); assay: Preemergence herbicidal activity; type: in vivo; conditions: 17.5 g/Ha; scored after 3 weeks; 0 no injury, 100 complete kill or no germination
How it was run: as §1

[12] = tested on: velvetleaf (Abutilion theophrasti); assay: Preemergence herbicidal activity; type: in vivo; conditions: 17.5 g/Ha; scored after 3 weeks; 0 no injury, 100 complete kill or no germination
How it was run: as §1

wild oats (Avena fatua) [13] = assay: Postemergence herbicidal activity; type: in vivo; conditions: scored after 2 weeks, 0 no injury, 100 complete kill
How it was run: (§2)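 Percent injury, rated visually two weeks after application against untreated plants, reflects a thorough-coverage spray given at the first to second true leaf stage. Application rates in ppm approximate g/ha (1 ppm ≈ 1 g/ha).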

[14] = tested on: Rox orange sorghum (Sorghum bicolor); assay: Postemergence herbicidal activity; type: in vivo; conditions: scored after 2 weeks, 0 no injury, 100 complete kill
How it was run: as §2

[15] = tested on: chickweed (Stellaria media); assay: Postemergence herbicidal activity; type: in vivo; conditions: scored after 2 weeks, 0 no injury, 100 complete kill
How it was run: as §2

[16] = tested on: wild buckwheat (Polygonum convolvulus); assay: Postemergence herbicidal activity; type: in vivo; conditions: scored after 2 weeks, 0 no injury, 100 complete kill
How it was run: as §2

[17] = tested on: pigweed (Amaranthus retroflexus); assay: Postemergence herbicidal activity; type: in vivo; conditions: scored after 2 weeks, 0 no injury, 100 complete kill
How it was run: as §2

[18] = tested on: lambsquarters (Chenopodium album); assay: Postemergence herbicidal activity; type: in vivo; conditions: scored after 2 weeks, 0 no injury, 100 complete kill
How it was run: as §2

[19] = tested on: morningglory (Ipomoea hederacea); assay: Postemergence herbicidal activity; type: in vivo; conditions: scored after 2 weeks, 0 no injury, 100 complete kill
How it was run: as §2

[20] = tested on: giant foxtail (Setaria faberi); assay: Postemergence herbicidal activity; type: in vivo; conditions: scored after 2 weeks, 0 no injury, 100 complete kill
How it was run: as §2

[21] = tested on: blackgrass (Alopecurus myosuroides); assay: Postemergence herbicidal activity; type: in vivo; conditions: scored after 2 weeks, 0 no injury, 100 complete kill
How it was run: as §2

viola (Viola tricolor) = assay: Postemergence herbicidal activity; type: in vivo; conditions: scored after 2 weeks, 0 no injury, 100 complete kill
How it was run: as §2

[22] = tested on: cocklebur (Xanthium strumarium); assay: Postemergence herbicidal activity; type: in vivo; conditions: scored after 2 weeks, 0 no injury, 100 complete kill
How it was run: as §2

[23] = tested on: velvetleaf (Abutilion theophrasti); assay: Postemergence herbicidal activity; type: in vivo; conditions: scored after 2 weeks, 0 no injury, 100 complete kill
How it was run: as §2

[24] = tested on: Green foxtail (Setaria viridis); assay: Postemergence herbicidal activity with safener; type: in vivo; conditions: 25 g/ha postemergence; 0 no injury, 100 complete kill
From the text: (§3) Pre-formulated test materials utilized were as follows: Compound 15 as a 30 g ai/L emulsified concentrate (3% Compound 15, 3% Agrimer AL-10 (copolymer of 1-ethenyl-2-pyrolidinone and 1-butene), 94% N-methyl pyrrolidone w/w) and cloquintocet-mexyl (CQC) as a 120 g ai/L emulsified concentrate (12% cloquintocet-mexyl, 2.5% Toximul D, 2.5% Toximul H, [blends of calcium dodecylbenzenesulfonate plus castor oil ehtoxylates, nonylphenol ethoxylates and EO-PO block copolymers] 83% aromatic 200 w/w). Diluted stock solutions of formulated materials were made in distilled water. Final spray solutions were made by adding specified aliquots of diluted stock materials to a solution containing distilled water and X-77 surfactant at 0.25% v/v. The solutions were applied using a mechanized track-sprayer calibrated to deliver 187 1/ha carrier volume with a nozzle (flat fan) pressure of 276 kilopascals.
(§4) Assessment of weed control and crop injury was taken a 3 weeks after application. Plant injury was visually assessed on a scale of 0 to 100% with 0 equal to no injury and 100 equal to complete kill.

[25] = tested on: Windgrass (Apera spica-venta); assay: Postemergence herbicidal activity with safener; type: in vivo; conditions: 25 g/ha postemergence; 0 no injury, 100 complete kill
From the text: as §3, §4

[26] = tested on: Italian ryegrass (Lolium multiflorum); assay: Postemergence herbicidal activity with safener; type: in vivo; conditions: 25 g/ha postemergence; 0 no injury, 100 complete kill
From the text: as §3, §4

[27] = tested on: blackgrass (Alopecurus myosuroides); assay: Postemergence herbicidal activity with safener; type: in vivo; conditions: 25 g/ha postemergence; 0 no injury, 100 complete kill
From the text: as §3, §4

Wild oat (Avena fatua) = assay: Postemergence herbicidal activity with safener; type: in vivo; conditions: 25 g/ha postemergence; 0 no injury, 100 complete kill
From the text: as §3, §4

[28] = tested on: Spring wheat (Triticum aestivum); assay: Postemergence herbicidal activity with safener, crop injury; type: in vivo; conditions: 25 g/ha postemergence; 3 weeks after application; 0 no injury, 100 complete kill
From the text: as §3, §4

Row | SMILES | Preemergence herbicidal activity AVEFA (wild oats (Avena fatua) [1]) [%] | Preemergence herbicidal activity SORBI [2] [%] | Preemergence herbicidal activity AMARE [3] [%] | Preemergence herbicidal activity EPHHL [4] [%] | Preemergence herbicidal activity CHEAL [5] [%] | Preemergence herbicidal activity IPOHE [6] [%] | Preemergence herbicidal activity SETFA [7] [%] | Preemergence herbicidal activity DIGSA [8] [%] | Preemergence herbicidal activity ALOMY [9] [%] | Preemergence herbicidal activity ECHCG [10] [%] | Preemergence herbicidal activity XANST [11] [%] | Preemergence herbicidal activity ABUTH [12] [%] | Postemergence herbicidal activity AVEFA (wild oats (Avena fatua) [13]; 7.8 ppm) [%] | Postemergence herbicidal activity SORBI ([14]; 7.8 ppm) [%] | Postemergence herbicidal activity STEME ([15]; 7.8 ppm) [%] | Postemergence herbicidal activity POLCO ([16]; 7.8 ppm) [%] | Postemergence herbicidal activity AMARE ([17]; 7.8 ppm) [%] | Postemergence herbicidal activity CHEAL ([18]; 7.8 ppm) [%] | Postemergence herbicidal activity SETFA ([20]; 7.8 ppm) [%] | Postemergence herbicidal activity ALOMY ([21]; 7.8 ppm) [%] | further results
1 | COc1cc(OC)n2nc(NS(=O)(=O)c3c(Cl)cccc3Cl)nc2n1 [Compound 1, N-(5,7-dimethoxy[1,2,4]triazolo-[1,5-a]pyrimidin-2-yl)-2,6-dichlorobenzene-sulfonamide] | 100 | 98 | 100 | 70 | 98 | 80 | 95 | 98 | 100 | 98 | 100 | 99 | 95 | 90 | 95 | 95 | 90 | 90 | 98 | 90 | Postemergence herbicidal activity IPOHE ([19]; 7.8 ppm): 80%; Postemergence herbicidal activity VIOTR (viola (Viola tricolor); 7.8 ppm): 75%; Postemergence herbicidal activity XANST ([22]; 7.8 ppm): 85%; Postemergence herbicidal activity ABUTH ([23]; 7.8 ppm): 85%; melting point: 211 to 213 °C
2 | COc1cc(OC)n2nc(NS(=O)(=O)c3c(C(F)(F)F)ccnc3OC)nc2n1 [Compound 15, N-(5,7-dimethoxy[1,2,4]triazolo[1,5-a]pyrimidin-2-yl)-2-methoxy-4-(trifluoromethyl)-3-pyridinesulfonamide] | 98 | 100 | 70 | 98 | 100 | 95 | 100 | 98 | 100 | 98 | 95 | 95 | 98 | 98 | 98 | 98 | 98 | 95 | 100 | 99 | Postemergence herbicidal activity VIOTR (viola (Viola tricolor); 7.8 ppm): 95%; Postemergence herbicidal activity XANST ([22]; 7.8 ppm): 90%; Postemergence herbicidal activity ABUTH ([23]; 7.8 ppm): 95%; % Control 3 Weeks After Application SETVI [24]: 99%; % Control 3 Weeks After Application APSEV [25]: 100%; % Control 3 Weeks After Application LOLMU [26]: 99%; % Control 3 Weeks After Application ALOMY [27]: 99%; % Control 3 Weeks After Application AVEFA (Wild oat (Avena fatua)): 99%; % Injury TRZAS [28]: 47%
3 | COc1cc(OC)n2nc(NS(=O)(=O)c3c(I)ccnc3OC)nc2n1 [Compound 17] | 90 | 99 | 100 | 100 | 100 | 60 | 100 | 100 | 99 | 100 | 65 | 75 |  |  |  |  |  |  |  |  | Postemergence herbicidal activity AVEFA (wild oats (Avena fatua) [13]; 15.6 ppm): 90%; Postemergence herbicidal activity SORBI ([14]; 15.6 ppm): 90%; Postemergence herbicidal activity STEME ([15]; 15.6 ppm): 75%; Postemergence herbicidal activity POLCO ([16]; 15.6 ppm): 75%; Postemergence herbicidal activity AMARE ([17]; 15.6 ppm): 100%; Postemergence herbicidal activity CHEAL ([18]; 15.6 ppm): 100%; Postemergence herbicidal activity IPOHE ([19]; 15.6 ppm): 70%; Postemergence herbicidal activity SETFA ([20]; 15.6 ppm): 90%; Postemergence herbicidal activity ALOMY ([21]; 15.6 ppm): 90%; Postemergence herbicidal activity VIOTR (viola (Viola tricolor); 15.6 ppm): 98%; Postemergence herbicidal activity XANST ([22]; 15.6 ppm): 90%; Postemergence herbicidal activity ABUTH ([23]; 15.6 ppm): 78%
